Assay results reported in US9145373B2, “Certain kynurenine-3-monooxygenase inhibitors, pharmaceutical compositions, and methods of use thereof” (CHDI FOUNDATION, INC., priority 2008, dated 2015).
Structures can show the parent of a compound that is named as a salt.

Target: T1, KMO mouse enzyme (Mus musculus, UniProt Q91WN4)
T1 construct: KMO enzyme prepared at Evotec from mouse liver (4-6 weeks old) via mitochondria isolation; from tissue; host or cells: mouse liver (4-6 weeks old), mitochondria isolation, prepared at Evotec
T1 sequence (Q91WN4 whole entry): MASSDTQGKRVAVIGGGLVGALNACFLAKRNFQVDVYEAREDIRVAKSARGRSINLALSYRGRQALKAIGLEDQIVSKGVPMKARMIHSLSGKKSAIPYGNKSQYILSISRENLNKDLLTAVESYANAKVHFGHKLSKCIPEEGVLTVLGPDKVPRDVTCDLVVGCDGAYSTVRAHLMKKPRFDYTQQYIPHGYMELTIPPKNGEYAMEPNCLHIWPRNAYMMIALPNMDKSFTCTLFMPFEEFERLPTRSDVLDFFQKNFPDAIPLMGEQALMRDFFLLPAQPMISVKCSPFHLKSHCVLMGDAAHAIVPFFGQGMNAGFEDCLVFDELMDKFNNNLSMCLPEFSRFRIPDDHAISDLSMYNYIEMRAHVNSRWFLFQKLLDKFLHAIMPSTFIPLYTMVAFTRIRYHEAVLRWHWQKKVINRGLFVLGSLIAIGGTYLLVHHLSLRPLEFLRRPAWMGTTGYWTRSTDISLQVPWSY
Assay: KMO mouse enzyme assay: L-Kynurenine hydroxylation to 3-Hydroxy-Kynurenine monitored by LC/MS (MRM)
Type: biochemical
Details: compound at 10 μM, KMO enzyme from mouse liver mitochondria; for inhibition at 10 µM: read-out: INH.Mouse @ 10 μM
Experimental: A method of monitoring L-Kynurenine (KYN) hydroxylation to form 3-Hydroxy-Kynurenine (3OH-KYN) by LC/MS is described. Product is quantified by multiple reaction monitoring (MRM method).
• Compound: Stock concentrations: 10 mM in 100% DMSO • Enzyme: KMO enzyme prepared at Evotec from mouse liver (4-6 weeks old) via mitochondria isolation as described in the literature • Substrate: L-Kynurenine (Sigma: Cat# K3750, stock concentration: 10 mM in 100 mM potassium phosphate buffer, pH 7.4) Assay Conditions: […]

Row | inhibition at 10 µM [%] | INH.Mouse @ 10 μM | Structure (SMILES)
1 | 100 | – | CC(C)NC(=O)c1cc(-c2cccc(Cl)c2)ncn1 [6-(3-Chloro-phenyl)-pyrimidine-4-carboxylic acid isopropylamide]
2 | 100 | – | O=C(Nc1ccon1)c1cc(-c2cccc(Cl)c2)ncn1 [6-(3-Chloro-phenyl)-pyrimidine-4-carboxylic acid isoxazol-3-ylamide]
3 | 96.6 | – | Cc1cccc(NC(=O)c2cc(-c3cccc(Cl)c3)ncn2)c1 [6-(3-Chloro-phenyl)-pyrimidine-4-carboxylic acid m-tolylamide]
4 | 106 | – | COC(=O)c1cc(-c2cccc(Cl)c2)ncn1 [6-(3-Chloro-phenyl)-pyrimidine-4-carboxylic acid methyl ester]
5 | 100 | – | Cc1ccc(N(C)C(=O)c2cc(-c3cccc(Cl)c3)ncn2)cc1 [6-(3-Chloro-phenyl)-pyrimidine-4-carboxylic acid methyl-p-tolyl-amide]
6 | 100 | – | CN(C(=O)c1cc(-c2cccc(Cl)c2)ncn1)c1ccccc1 [6-(3-Chloro-phenyl)-pyrimidine-4-carboxylic acid methyl-phenyl-amide]
7 | 95.2 | – | CN(C(=O)c1cc(-c2cccc(Cl)c2)ncn1)c1cccnc1 [6-(3-Chloro-phenyl)-pyrimidine-4-carboxylic acid methyl-pyridin-3-yl-amide]
8 | 100 | – | CNC(=O)c1cc(-c2cccc(Cl)c2)ncn1 [6-(3-Chloro-phenyl)-pyrimidine-4-carboxylic acid methylamide]
9 | 96.2 | – | Cc1ccccc1NC(=O)c1cc(-c2cccc(Cl)c2)ncn1 [6-(3-Chloro-phenyl)-pyrimidine-4-carboxylic acid o-tolylamide]
10 | 100 | – | O=C(Nc1ncco1)c1cc(-c2cccc(Cl)c2)ncn1 [6-(3-Chloro-phenyl)-pyrimidine-4-carboxylic acid oxazol-2-ylamide]
11 | 100 | – | Cc1ccc(NC(=O)c2cc(-c3cccc(Cl)c3)ncn2)cc1 [6-(3-Chloro-phenyl)-pyrimidine-4-carboxylic acid p-tolylamide]
12 | 100 | – | O=C(Nc1ccccc1)c1cc(-c2cccc(Cl)c2)ncn1 [6-(3-Chloro-phenyl)-pyrimidine-4-carboxylic acid phenylamide]
13 | 72.4 | – | CCCNC(=O)c1cc(-c2cccc(Cl)c2)ncn1 [6-(3-Chloro-phenyl)-pyrimidine-4-carboxylic acid propylamide]
14 | 100 | – | O=C(Nc1cnccn1)c1cc(-c2cccc(Cl)c2)ncn1 [6-(3-Chloro-phenyl)-pyrimidine-4-carboxylic acid pyrazin-2-ylamide]
15 | 100 | – | O=C(Nc1cccnn1)c1cc(-c2cccc(Cl)c2)ncn1 [6-(3-Chloro-phenyl)-pyrimidine-4-carboxylic acid pyridazin-3-ylamide]
16 | 100 | – | O=C(Nc1ccccn1)c1cc(-c2cccc(Cl)c2)ncn1 [6-(3-Chloro-phenyl)-pyrimidine-4-carboxylic acid pyridin-2-ylamide]
17 | 98.6 | – | O=C(Nc1cccnc1)c1cc(-c2cccc(Cl)c2)ncn1 [6-(3-Chloro-phenyl)-pyrimidine-4-carboxylic acid pyridin-3-ylamide]
18 | 100 | – | O=C(Nc1ccncc1)c1cc(-c2cccc(Cl)c2)ncn1 [6-(3-Chloro-phenyl)-pyrimidine-4-carboxylic acid pyridin-4-ylamide]
19 | 100 | – | O=C(Nc1ncccn1)c1cc(-c2cccc(Cl)c2)ncn1 [6-(3-Chloro-phenyl)-pyrimidine-4-carboxylic acid pyrimidin-2-ylamide]
20 | 100 | – | O=C(Nc1cncnc1)c1cc(-c2cccc(Cl)c2)ncn1 [6-(3-Chloro-phenyl)-pyrimidine-4-carboxylic acid pyrimidin-5-ylamide]

Row | inhibition at 10 µM [%] | INH.Mouse @ 10 μM | Structure (SMILES)
21 | 100 | – | O=C(Nc1nccs1)c1cc(-c2cccc(Cl)c2)ncn1 [6-(3-Chloro-phenyl)-pyrimidine-4-carboxylic acid thiazol-2-ylamide]
22 | – | 87.7 | CN1CCN(c2ccc(NC(=O)c3cc(-c4cccc(Cl)c4)ncn3)cc2)CC1 [6-(3-Chloro-phenyl)-pyrimidine-4-carboxylicacid[4-(4-methyl-piperazin-1-yl)-phenyl]-amide]
23 | 75.8 | – | O=C(O)c1cc(-c2cc(F)cc(C(F)(F)F)c2)ncn1 [6-(3-Fluoro-5-trifluoromethyl-phenyl)-pyrimidine-4-carboxylic acid]
24 | 100 | – | COC(=O)c1cc(-c2cccc(F)c2)ncn1 [6-(3-Fluoro-phenyl)-pyrimidine-4-carboxylic acid methyl ester]
25 | 94.8 | – | O=C(Nc1cccnc1)c1cc(-c2cccc(F)c2)ncn1 [6-(3-Fluoro-phenyl)-pyrimidine-4-carboxylic acid pyridin-3-ylamide]
26 | 77.5 | – | COC(=O)c1cc(-c2cccc(OC)c2)ncn1 [6-(3-Methoxy-phenyl)-pyrimidine-4-carboxylic acid methyl ester]
27 | 81 | – | COc1cccc(-c2cc(C(=O)O)ncn2)c1 [6-(3-Methoxy-phenyl)-pyrimidine-4-carboxylic acid]
28 | 94.5 | – | COC(=O)c1cc(-c2cccc(C(F)(F)F)c2)ncn1 [6-(3-Trifluoromethyl-phenyl)-pyrimidine-4-carboxylic acid methyl ester]
29 | 92.7 | – | COC(=O)c1cc(-c2ccc(F)c(C(F)(F)F)c2)ncn1 [6-(4-Fluoro-3-trifluoromethyl-phenyl)-pyrimidine-4-carboxylic acid methyl ester]
30 | 100 | – | COc1ccc(-c2cc(C(=O)O)ncn2)cc1 [6-(4-Methoxy-phenyl)-pyrimidine-4-carboxylic acid]
31 | 100 | – | COC(=O)c1cc(-c2cc(Cl)ccc2F)ncn1 [6-(5-Chloro-2-fluoro-phenyl)-pyrimidine-4-carboxylic acid methyl ester]
32 | 100 | – | O=C(O)c1cc(-c2cc(Cl)ccc2F)ncn1 [6-(5-Chloro-2-fluoro-phenyl)-pyrimidine-4-carboxylic acid]
33 | 93.2 | – | COC(=O)c1cc(-c2cncc(Cl)c2)ncn1 [6-(5-Chloro-pyridin-3-yl)-pyrimidine-4-carboxylic acid methyl ester]
34 | 91.7 | – | O=C(O)c1cc(-c2cncc(Cl)c2)ncn1 [6-(5-Chloro-pyridin-3-yl)-pyrimidine-4-carboxylic acid]
35 | 87.2 | – | COC(=O)c1cc(-c2cncc(F)c2)ncn1 [6-(5-Fluoro-pyridin-3-yl)-pyrimidine-4-carboxylic acid methyl ester]
36 | 96.1 | – | O=C(O)c1cc(-c2cncc(F)c2)ncn1 [6-(5-Fluoro-pyridin-3-yl)-pyrimidine-4-carboxylic acid]
37 | 100 | – | COC(=O)c1cc(-c2ccccc2)ncn1 [6-Phenyl-pyrimidine-4-carboxylic acid methyl ester]
38 | 74.5 | – | COC(=O)c1cc(-c2cccnc2)ncn1 [6-Pyridin-3-yl-pyrimidine-4-carboxylic acid methyl ester trifluoroacetic acid salt]
39 | 96.3 | – | COC(=O)c1cc(-c2cccc(C)c2)ncn1 [6-m-Tolyl-pyrimidine-4-carboxylic acid methyl ester]
40 | 100 | – | O=C(c1cc(-c2ccc(Cl)c(Cl)c2)ncn1)N1CCc2cc(Cl)ccc21 [(5-Chloro-2,3-dihydro-indol-1-yl)-[6-(3,4-dichloro-phenyl)-pyrimidin-4-yl]-methanone]
